Data set [1] is described as follows: Serum fatty acid profile (% serum fatty acids, GC/MS), feeding study. Format: in vivo, bottlenose dolphin (Tursiops truncatus). The method, then: The dolphins started on a 100% capelin diet.
Changes in percent serum for the targeted fatty acids (C17:0, C20:4n6, and C22:0), as well as insulin, glucose, triglycerides, iron, transferrin saturation, and ferritin, were assessed among feeding study dolphins during weeks 3, 6, 12, 18 and 24 and compared to week 0 using pairwise comparison t-tests. Erythrocyte membrane fatty acids were measured during weeks 3, 6, 12, 18, and 24. Serum ferritin in Group A dolphins increased.
Blood was collected into BD Vacutainer serum separator tubes (for insulin, iron, ferritin, serum fatty acids profile, and serum chemistry), EDTA BD Vacutainer blood collection tubes (for erythrocyte fatty acid profile), and Lithium Heparin BD Vacutainer blood collection tubes (for plasma chemistry, including triglycerides). Blood tubes were centrifuged at 3000 rpm for 10 minutes within 30-60 minutes of collection and chilled during processing until shipment. Remaining serum/plasma was transferred to cryovials and stored at −80° C. until shipment on dry ice via overnight courier to the reference laboratories.
Serum and red blood cell membrane fatty acid profiles were performed by the Genetics Laboratories at the Kennedy Krieger Institute. Fatty acids were analyzed by capillary gas chromatography/mass spectrometry of pentaflourobenzyl bromide fatty acid derivatives using an AT-Silar-100 column (Grace, Columbia, Md. 21044) as previously described. For red blood cells only, the lipids were extracted with hexane:isopropanol before analysis. Each run was required to pass clinical laboratory quality control before the data were released. CV % were typically under 10%. Percent fatty acids in serum was used as a sturdier index to help reduce potential variability in serum among study dolphins. Iron, TIBC, and ferritin were analyzed at the Kansas State Veterinary Diagnostic Laboratory by colorimetric analysis on the Roche Cobas Mira (Roche Diagnostics, Indianapolis, Ind. 46250) per the manufacturer's protocol. Plasma triglycerides and glucose were directly measured using the Roche Cobas 8000 system (Roche Diagnostics, Indianapolis, Ind. 46250) per the manufacturers' protocol. Glucose was measured photometrically at the Animal Health Diagnostic Center at Cornell University on the Roche Diagnostics Modular Analytics P Module clinical chemistry analyzer (Roche Diagnostics, Indianapolis, Ind. 46250). Total insulin was analyzed at ARUP Laboratories by ultrafiltration/quantitative chemiluminescent immunoassay on the Siemens ADVIA Centaur Immunoassay system (Siemens Medical Solutions USA, Inc., Malvern, Pa. 19355).

Data set [2] in a line: Serum fatty acid metabolomics (UPLC-MS/MS), feeding study. The method, then: This study examined global metabolic profiles in six dolphins (“Group A dolphins”). The dolphins lived in netted enclosures within San Diego Bay. The dolphins started on a 100% capelin diet. Group A dolphins were fed one-third of their daily diet in the morning after their routine overnight fast and 2h postprandial, in-water, and trained blood samples were drawn (typically near 10:00 a.m.). An additional four dolphins (“Group C dolphins”) were fed the capelin diet.
Two hour post-prandial samples were collected from the dolphins at baseline (week 0) and at four time points following the switch to the modified diet: 6, 12, 18, and 24 weeks. Routine monthly samples collected from four reference dolphins that were housed in the same environment as the Group A dolphins were assessed for glucose, triglycerides, ferritin, and percent serum fatty acids.
Sample Preparation: Samples were prepared using the automated MicroLab STAR® system from Hamilton Company. Several recovery standards were added prior to the first step in the extraction process for QC purposes. Proteins were precipitated with methanol under vigorous shaking for 2 min (Glen Mills GenoGrinder 2000) followed by centrifugation. The resulting extract was divided into five fractions: two for analysis by two separate reverse phase (RP)/UPLC-MS/MS methods with positive ion mode electrospray ionization (ESI), one for analysis by RP/UPLC-MS/MS with negative ion mode ESI, one for analysis by HILIC/UPLC-MS/MS with negative ion mode ESI, and one sample was reserved. Samples were placed briefly on a TurboVap® (Zymark) to remove the organic solvent. The sample extracts were stored overnight under nitrogen before preparation for analysis.
Ultrahigh Performance Liquid Chromatography-Tandem Mass Spectroscopy (UPLC-MS/[…]): Each of four methods utilized a Waters ACQUITY ultra-performance liquid chromatography (UPLC) and a Thermo Scientific Q-Exactive high resolution/accurate mass spectrometer interfaced with a heated electrospray ionization (HESI-II) source and Orbitrap mass analyzer operated at 35,000 mass resolution. A sample extract was dried, then reconstituted in solvents compatible to each of the four methods. Each reconstitution solvent contained a series of standards at fixed concentrations to ensure injection and chromatographic consistency. A first aliquot was analyzed using acidic positive ion conditions, chromatographically optimized for more hydrophilic compounds. In this method, the extract was gradient eluted from a C18 column (Waters UPLC BEH C18-2. 1×100 mm, 1.7 μm) using water and methanol, containing 0.05% perfluoropentanoic acid (PFPA) and 0.1% formic acid (FA). A second aliquot was also analyzed using acidic positive ion conditions, however it was chromatographically optimized for more hydrophobic compounds. In this method, the extract was gradient eluted from the same afore mentioned C18 column using methanol, acetonitrile, water, 0.05% PFPA and 0.01% FA and was operated at an overall higher organic content. A third aliquot was analyzed using basic negative ion optimized conditions using a separate dedicated C 18 column. The basic extracts were gradient eluted from the column using methanol and water, however with 6.5 mM Ammonium Bicarbonate at pH 8. […] The MS analysis alternated between MS and data-dependent MSn scans using dynamic exclusion. The scan range varied slighted between methods but covered 70-1000 m/z.
Data Extraction and Compound Identification: Raw data was extracted, peak-identified and QC processed using Metabolon's hardware and software. The systems were based on a web-service platform utilizing Microsoft's .NET technologies, which ran on high-performance application servers and fiber-channel storage arrays in clusters to provide active failover and load-balancing. Compounds were identified by comparison to library entries of purified standards or recurrent unknown entities.

[3] abbreviates: bottlenose dolphin (Tursiops truncatus), in vivo, 3 weeks.
[4] abbreviates: bottlenose dolphin (Tursiops truncatus), in vivo, 6 weeks.
The mark [5] stands for this setting: bottlenose dolphin (Tursiops truncatus), in vivo, 12 weeks.
The mark [6] stands for this setting: bottlenose dolphin (Tursiops truncatus), in vivo, 18 weeks.
Where [7] appears, read: bottlenose dolphin (Tursiops truncatus), in vivo, 24 weeks.
Where [8] appears, read: Group A dolphins, modified diet, proportional to value at outset of study.

As to `CCCCCCCCCCCCCCCCCCCCCC(=O)O` [Behenic acid], the “Serum fatty acids (%)” value came out at 0.21 ± 0.06% in data set [1] (Group A dolphins, modified diet, week 3); 0.25 ± 0.07% in data set [1] (Group A dolphins, modified diet, week 6); 0.28 ± 0.06% in data set [1] (Group A dolphins, modified diet, week 12); 0.26 ± 0.04% in data set [1] (Group A dolphins, modified diet, week 18); 0.29 ± 0.04% in data set [1] (Group A dolphins, modified diet, week 24).
As to `CCCCC/C=C\C/C=C\C/C=C\C/C=C\CCCC(=O)O` [Arachidonic acid, (5Z,8Z,11Z,14Z)-icosa-5,8,11,14-tetraenoic acid], the “Serum fatty acids (%)” value in data set [1] (setting [3]) turned out to be 6 ± 2%; in data set [1] (setting [4]), 7 ± 2%; in data set [1] (setting [5]), 10 ± 4%; in data set [1] (setting [6]) it was 10 ± 3%; in data set [1] (setting [7]) it was 10 ± 3%. In data set [2] (setting [4]), the “serum concentration 6 wk / 0 wk” value worked out at 1.19. Further, the “serum concentration 12 wk / 0 wk” value in data set [2] (setting [5]) came to 1.62. Besides, the “serum concentration 18 wk / 0 wk” value in data set [2] (setting [6]) was 1.5. Besides, in data set [2] (setting [7]), the “serum concentration 24 wk / 0 wk” value was 1.19.
On to `CCCCCCCCCCCCCCCCC(=O)O` [Heptadecanoic acid, heptadecanoic acid], for which the “Serum fatty acids (%)” value in data set [1] (setting [3]) is reported as 0.5 ± 0.2%; in data set [1] (setting [4]), 0.5 ± 0.1%; in data set [1] (setting [5]), 0.7 ± 0.3%; in data set [1] (setting [6]), 0.8 ± 0.4%; in data set [1] (setting [7]), 0.7 ± 0.2%. Moreover, in data set [1] (in vivo), the “serum levels compared to week 0” value is given as “higher”. Further, the “serum concentration 6 wk / 0 wk” value in data set [2] (setting [8]) is 1.25. In data set [2] (setting [8]), the “serum concentration 12 wk / 0 wk” value is 1.65. The “serum concentration 18 wk / 0 wk” value in data set [2] (setting [8]) is 1.72. Further, the “serum concentration 24 wk / 0 wk” value in data set [2] (setting [8]) amounted to 1.21.
On to `CCCCCCCCCCCCCCC(=O)O` [pentadecanoate (15:0), pentadecanoate], for which, in data set [2] (in vivo), the “serum concentration 6 wk / 0 wk” value worked out at 1.01, the “serum concentration 12 wk / 0 wk” value turned out to be 1.27, the “serum concentration 18 wk / 0 wk” value was found to be 1.42 and the “serum concentration 24 wk / 0 wk” value was 0.97.
On the same counts, the results for `CC/C=C\C/C=C\C/C=C\CCCCCCCCCCCC(=O)O` [docosatrienoate (22:3n3), docosatrienoate] are 1.08, 2.06, 1.96 and 1.06.

The values above are taken from US11116740B2, “Methods for use in support of planned supplement and food ingredient products for diagnosis and treatment of metabolic syndrome” (priority 2015, dated 2021).
